Source: patent US20240148744A1 (Celgene Corporation, priority 2021, published 2024)
pIC50: −log10 of the molar value.

Key:
[1] = system: Onchocerca gutturosa adult male worms; assay: Onchocerca gutturosa in vitro screening model: adult worm motility score and MTT/formazan viability; type: cell-based; conditions: read-out: O. gutt Activity class
[2] = system: Dirofilaria immitis; assay: Heartworm screen Dirofilaria immitis (stage DiMF/DiL4 not specified in the tables); type: cell-based; conditions: read-out: D. immitis Activity class

Q: With `CN(C)c1cccnc1S(=O)(=O)Nc1cccc2c1N(C1CC1)CCC2` [Compound 42, N-(1-cyclo-propyl-1,2,3,4-tetra-hydroquin-olin-8-yl)-3-(dimethyl-amino)pyr-idine-2-sulfonamide] as the compound, how does the pIC50 [1] read?
A: 5.30 to 6.30

Q: What about the pIC50 [2] of the same compound?
A: 5.30 to 6.30

Q: What does the source list for `CN(C)c1cccnc1S(=O)(=O)Nc1cccc2c1NCCC2` [Compound 45, 3-(dimethyl-amino)-N-(1,2,3,4-tetra-hydroquin-olin-8-yl)-pyridine-2-sulfonamide]?
A: pIC50 [1]: 5.30 to 6.30; pIC50 [2]: 5.30 to 6.30

Q: How did the pIC50 [1] turn out when `O=S(=O)(Nc1ccc(F)c2cccnc12)c1ncccc1C1CC1` [Compound 48, 3-cyclo-propyl-N-(5-fluoroquin-olin-8-yl)-pyridine-2-sulfonamide] was run?
A: > 6.70

Q: What about the pIC50 [2] of the same compound?
A: 5.30 to 6.30

Q: Which results are given for `Cc1cnc(C)c(S(=O)(=O)Nc2c(Cl)ccc3cccnc23)n1` [Compound 53, N-(7-chloro-quinolin-8-yl)-3,6-dimethyl-pyrazine-2-sulfonamide]?
A: pIC50 [1]: 5.30 to 6.30; pIC50 [2]: 5.30 to 6.30

Q: With `Cc1cccnc1S(=O)(=O)Nc1cccc2c1N(C)CCC2` [Compound 55, 3-methyl-N-(1-methyl-1,2,3,4-tetra-hydroquin-olin-8-yl)-pyridine-2-sulfonamide] as the compound, how does the pIC50 [1] read?
A: 5.30 to 6.30

Q: What about the pIC50 [2] of the same compound?
A: 5.30 to 6.30

Q: What does the source list for `Cc1ccc(S(=O)(=O)Nc2ccc(C)c3cccnc23)nc1` [Compound 58, 5-methyl-N-(5-methyl-quinolin-8-yl)pyridine-2-sulfonamide]?
A: pIC50 [1]: 6.30 to 6.70; pIC50 [2]: 5.30 to 6.30

Q: Which results are given for `CC(C)c1cccnc1S(=O)(=O)Nc1c(Cl)ccc2cccnc12` [Compound 68, N-(7-chloro-quinolin-8-yl)-3-iso-propylpyr-idine-2-sulfonamide]?
A: pIC50 [1]: > 6.70; pIC50 [2]: 5.30 to 6.30

Q: With `N#Cc1cccc(S(=O)(=O)Nc2ccc(F)c3cccnc23)c1` [Compound 72, 3-cyano-N-(5-fluoroquin-olin-8-yl)ben-zenesulfon-amide] as the compound, how does the pIC50 [1] read?
A: > 6.70

Q: And the pIC50 [2]?
A: 5.30 to 6.30

Q: Which results are given for `O=S(=O)(Nc1c(Cl)ccc2cccnc12)c1ncccc1Cl` [Compound 73, 3-chloro-N-(7-chloro-quinolin-8-yl)pyridine-2-sulfonamide]?
A: pIC50 [1]: > 6.70; pIC50 [2]: 5.30 to 6.30

Q: Which results are given for `Cc1nccnc1S(=O)(=O)Nc1ccc(N2CCOCC2)c2cccnc12` [Compound 75, 3-methyl-N-(5-morpho-linoquinolin-8-yl)pyrazine-2-sulfonamide]?
A: pIC50 [1]: > 6.70; pIC50 [2]: 5.30 to 6.30

Q: How did the pIC50 [1] turn out when `CN(C)c1nccnc1S(=O)(=O)Nc1c(Cl)ccc2cccnc12` [Compound 76, N-(7-chloro-quinolin-8-yl)-3-(dimethyl-amino)pyr-azine-2-sulfonamide] was run?
A: 5.30 to 6.30

Q: What about the pIC50 [2] of the same compound?
A: 5.30 to 6.30

Q: What does the source list for `CC(C)n1nccc1S(=O)(=O)Nc1c(Cl)ccc2cccnc12` [Compound 77, N-(7-chloro-quinolin-8-yl)-1-iso-propyl-1H-pyrazole-5-sulfonamide]?
A: pIC50 [1]: 6.30 to 6.70; pIC50 [2]: 5.30 to 6.30

Q: What does the source list for `N#Cc1cccc(S(=O)(=O)Nc2ccc(N3CCOCC3)c3cccnc23)c1` [Compound 80, 3-cyano-N-(5-morpho-linoquinolin-8-yl)ben-zenesulfon-amide]?
A: pIC50 [1]: > 6.70; pIC50 [2]: 5.30 to 6.30

Q: With `CCn1ccnc1S(=O)(=O)Nc1ccc(C)c2cccnc12` [Compound 83, 1-ethyl-N-(5-methylquin-olin-8-yl)-1H-imidazole-2-sulfonamide] as the compound, how does the pIC50 [1] read?
A: > 6.70

Q: What about the pIC50 [2] of the same compound?
A: 6.30 to 6.70

Q: What does the source list for `CCn1ccnc1S(=O)(=O)Nc1c(OC)ccc2cccnc12` [Compound 84, 1-ethyl-N-(7-methoxyquin-olin-8-yl)-1H-imidazole-2-sulfonamide]?
A: pIC50 [1]: > 6.70; pIC50 [2]: 6.30 to 6.70

Q: With `CCn1ccnc1S(=O)(=O)Nc1cccc2cc(OC)cnc12` [Compound 86, 1-ethyl-N-(3-methoxyquin-olin-8-yl)-1H-imidazole-2-sulfonamide] as the compound, how does the pIC50 [1] read?
A: > 6.70

Q: What about the pIC50 [2] of the same compound?
A: 6.30 to 6.70

Q: With `Cc1ccc(S(=O)(=O)Nc2cccc3cc(F)cnc23)nc1` [Compound 87, N-(3-fluoro-quinolin-8-yl)-5-methyl-pyridine-2-sulfonamide] as the compound, how does the pIC50 [1] read?
A: > 6.70

Q: And the pIC50 [2]?
A: 6.30 to 6.70
